From the supplement of paper PMC10307832

compound: NCC(=O)Nc1ccc(-n2nc(C(F)(F)F)cc2-c2ccc3c(ccc4ccccc43)c2)cc1 + Cc1nc(NC(=O)N2CCC[C@H]2C(N)=O)sc1-c1ccnc(C(C)(C)C(F)(F)F)c1 [Alpelisib] (partner 2 µM); assay: relative viability (nuclei count vs DMSO), 5 days (fraction); higher = more cells survive; settings: first compound 0.02 µM
Procedure, shortened: (§1)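 Relative viability divides the nuclei count in treated wells by that in vehicle wells. Lung cancer cell lines were seeded in 1536-well plates, dosed by pin tool the next day, and fixed and stained after 5 days in one step with final 0.05% Triton X-100, 1% formaldehyde and 1 ug/ml Hoechst. Dosing was a single drug or a fixed anchor-drug dose plus five library-drug doses (not always all listed) in √10 steps, and values are medians of duplicate plates imaged at 4×.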

Cell Line	relative viability
PC-3 [JPC-3]	1.04

same assay, conditions: first compound 0.06325 µM

Cell Line	relative viability
NCI-H647	1.15
CAL-12T	1.27
NCI-H1651	0.964
EPLC-272H	0.916
NCI-H2228	0.84
NCI-H1792	0.859
NCI-H1355	0.949
NCI-H3122	0.847
NCI-H1437	0.995
NCI-H1755	0.93
NCI-H2023	0.625
HCC-15	0.9
NCI-H1793	0.734
PC-14	0.952
EKVX	0.809
LC-2-ad	0.947
NCI-H1944	0.833
NCI-H1975	0.64
RERF-LC-KJ	0.899
PC-3 [JPC-3]	1.07

same assay, conditions: first compound 0.2 µM

Cell Line	relative viability
NCI-H647	1.21
CAL-12T	1.34
NCI-H1651	0.969
EPLC-272H	0.917
NCI-H2228	0.669
NCI-H1792	0.77
NCI-H1355	0.825
NCI-H3122	0.801
NCI-H1437	0.999
NCI-H1755	0.917
NCI-H2023	0.609
HCC-15	0.889
NCI-H1793	0.72
PC-14	1.02
EKVX	0.924
LC-2-ad	0.945
NCI-H1944	0.793
NCI-H1975	0.652
RERF-LC-KJ	0.734
PC-3 [JPC-3]	1.05

same assay, conditions: first compound 0.6325 µM

Cell Line	relative viability
NCI-H647	1.12
CAL-12T	1.03
NCI-H1651	0.847
EPLC-272H	1.05
NCI-H2228	0.689
NCI-H1792	0.751
NCI-H1355	0.838
NCI-H3122	0.823
NCI-H1437	0.913
NCI-H1755	0.884
NCI-H2023	0.577
HCC-15	0.956
NCI-H1793	0.666
PC-14	0.889
EKVX	0.927
LC-2-ad	0.883
NCI-H1944	0.818
NCI-H1975	0.677
RERF-LC-KJ	0.883
PC-3 [JPC-3]	1.07

same assay, conditions: first compound 2 µM

Cell Line	relative viability
NCI-H647	0.982
CAL-12T	1.03
NCI-H1651	0.941
EPLC-272H	0.936
NCI-H2228	0.921
NCI-H1792	0.736
NCI-H1355	0.865
NCI-H3122	0.746
NCI-H1437	0.918
NCI-H1755	0.955
NCI-H2023	0.596
HCC-15	0.865
NCI-H1793	0.736
PC-14	1.04
EKVX	1.01
LC-2-ad	0.959
NCI-H1944	0.87
NCI-H1975	0.693
RERF-LC-KJ	0.937
PC-3 [JPC-3]	1.13

compound: NCC(=O)Nc1ccc(-n2nc(C(F)(F)F)cc2-c2ccc3c(ccc4ccccc43)c2)cc1 + Nc1nc2[nH]cc(CCc3ccc(C(=O)N[C@@H](CCC(=O)O)C(=O)O)cc3)c2c(=O)[nH]1 [Pemetrexed] (partner 0.2 µM); assay: as above; settings: first compound 0.02 µM
Procedure, shortened: as §1

Cell Line	relative viability
NCI-H647	0.172
CAL-12T	1.11
NCI-H1651	0.588
EPLC-272H	0.275
NCI-H2228	0.375
NCI-H1792	0.943
NCI-H1355	1.06
NCI-H3122	0.194
NCI-H1437	0.309
NCI-H1755	0.69
NCI-H2023	0.226
HCC-15	0.209
NCI-H1793	0.907
PC-14	0.131
EKVX	0.38
LC-2-ad	0.28
NCI-H1944	0.609
NCI-H1975	0.309
RERF-LC-KJ	0.493
PC-3 [JPC-3]	1.2

same assay, conditions: first compound 0.06325 µM

Cell Line	relative viability
NCI-H647	0.182
CAL-12T	1.2
NCI-H1651	0.34
EPLC-272H	0.395
NCI-H2228	0.354
NCI-H1792	1.07
NCI-H1355	1.09
NCI-H3122	0.208
NCI-H1437	0.335
NCI-H1755	0.509
NCI-H2023	0.249
HCC-15	0.209
NCI-H1793	1.01
PC-14	0.136
EKVX	0.358
LC-2-ad	0.265
NCI-H1944	0.731
NCI-H1975	0.293
RERF-LC-KJ	0.402
PC-3 [JPC-3]	1.24

same assay, conditions: first compound 0.2 µM

Cell Line	relative viability
NCI-H647	0.205
CAL-12T	1.2
NCI-H1651	0.577
EPLC-272H	0.308
NCI-H2228	0.377
NCI-H1792	0.802
NCI-H1355	1.07
NCI-H3122	0.204
NCI-H1437	0.35
NCI-H1755	0.453
NCI-H2023	0.256
HCC-15	0.212
NCI-H1793	0.827
EKVX	0.408
LC-2-ad	0.292
NCI-H1944	0.642
NCI-H1975	0.291
RERF-LC-KJ	0.462
PC-3 [JPC-3]	1.08

same assay, conditions: first compound 0.6325 µM

Cell Line	relative viability
NCI-H647	0.203
CAL-12T	1.12
NCI-H1651	0.603
EPLC-272H	0.356
NCI-H2228	0.358
NCI-H1792	0.943
NCI-H1355	0.963
NCI-H3122	0.187
NCI-H1437	0.316
NCI-H1755	0.394
NCI-H2023	0.224
HCC-15	0.217
NCI-H1793	0.949
PC-14	0.131
EKVX	0.439
LC-2-ad	0.307
NCI-H1944	0.553
NCI-H1975	0.282
RERF-LC-KJ	0.447
PC-3 [JPC-3]	1.2

same assay, conditions: first compound 2 µM

Cell Line	relative viability
NCI-H647	0.202
CAL-12T	0.97
NCI-H1651	0.608
EPLC-272H	0.315
NCI-H2228	0.398
NCI-H1792	0.872
NCI-H1355	1.02
NCI-H3122	0.241
NCI-H1437	0.308
NCI-H1755	0.434
NCI-H2023	0.239
HCC-15	0.229
NCI-H1793	0.891
PC-14	0.113
EKVX	0.403
LC-2-ad	0.281
NCI-H1944	0.575
NCI-H1975	0.278
RERF-LC-KJ	0.466
PC-3 [JPC-3]	1.18
